For this assay, the target named is cAMP and cAMP-inhibited cGMP 3',5'-cyclic phosphodiesterase 10A (Homo sapiens, UniProt Q9Y233). As to the kind of experiment: Fluorescence Polarization Assay: The fluorescence polarization assay for cyclic nucleotide phosphodiesterases was performed using an IMAP® FP kit supplied by Molecular Devices, Sunnyvale, Calif. (product # R8139). IMAP® technology has been applied previously to phosphodiesterase assays (Huang, W., et al., J. Biomol Screen, 2002, 7: 215). Assays were performed at room temperature in 384-well microtiter plates with an incubation volume of 20.2 μL. Solutions of test compounds were prepared in DMSO and serially diluted with DMSO to yield 8 μL of each of 10 solutions differing by 3-fold in concentration, at 32 serial dilutions per plate. In general terms: Fluorescence polarisation rises when a labelled molecule tumbles more slowly, as on binding a larger partner.
Chain of cAMP and cAMP-inhibited cGMP 3',5'-cyclic phosphodiesterase 10A (Q9Y233 whole entry): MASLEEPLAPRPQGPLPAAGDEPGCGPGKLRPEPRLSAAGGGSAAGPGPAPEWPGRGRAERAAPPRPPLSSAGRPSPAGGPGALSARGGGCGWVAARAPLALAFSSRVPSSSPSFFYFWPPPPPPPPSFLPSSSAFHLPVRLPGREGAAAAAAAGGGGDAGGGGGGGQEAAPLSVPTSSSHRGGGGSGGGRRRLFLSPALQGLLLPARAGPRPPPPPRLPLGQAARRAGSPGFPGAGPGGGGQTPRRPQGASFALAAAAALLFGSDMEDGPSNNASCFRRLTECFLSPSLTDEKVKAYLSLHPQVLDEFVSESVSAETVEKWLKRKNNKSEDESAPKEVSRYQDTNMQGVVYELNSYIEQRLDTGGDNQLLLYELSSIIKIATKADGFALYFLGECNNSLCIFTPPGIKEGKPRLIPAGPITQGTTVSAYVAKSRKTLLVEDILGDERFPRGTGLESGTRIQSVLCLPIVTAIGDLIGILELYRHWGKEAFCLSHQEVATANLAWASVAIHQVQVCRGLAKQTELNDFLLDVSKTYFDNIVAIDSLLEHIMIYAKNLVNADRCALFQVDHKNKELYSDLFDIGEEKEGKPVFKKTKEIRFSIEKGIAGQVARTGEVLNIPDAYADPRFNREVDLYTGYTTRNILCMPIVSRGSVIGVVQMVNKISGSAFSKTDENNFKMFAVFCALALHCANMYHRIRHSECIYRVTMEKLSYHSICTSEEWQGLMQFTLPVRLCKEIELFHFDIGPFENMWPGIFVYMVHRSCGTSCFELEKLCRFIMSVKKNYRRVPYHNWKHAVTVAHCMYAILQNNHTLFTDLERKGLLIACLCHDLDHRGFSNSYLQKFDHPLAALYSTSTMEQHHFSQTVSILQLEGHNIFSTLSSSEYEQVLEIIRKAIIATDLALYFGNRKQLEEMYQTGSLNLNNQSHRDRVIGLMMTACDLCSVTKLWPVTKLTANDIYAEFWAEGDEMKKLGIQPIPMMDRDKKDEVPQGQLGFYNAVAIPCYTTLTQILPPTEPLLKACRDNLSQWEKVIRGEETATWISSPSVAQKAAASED

What is called Ki is the equilibrium dissociation constant of an inhibitor or competing ligand from its target. Low readings indicate higher affinity, high ones lower affinity. `Cc1ccc([C@H]2C[C@@H]2COc2nc(C)ncc2-c2cccc(C(F)(F)F)c2)nc1` registered a Ki of 0.83 nM.

The compound `Cc1ncc(-c2cnc(C(C)(C)O)cc2C)c(OC[C@H]2C[C@@H]2c2ccc3ccccc3n2)n1` had a Ki of less than 0.01 nM. With `COc1ccc([C@H]2C[C@@H]2COc2nc(C)ncc2-c2ccc(Cl)nc2)nc1` the figure was 1.3 nM; with `Cc1ccc([C@H]2C[C@@H]2COc2nc(C)ncc2-c2cncnc2)nc1`, 2.56 nM; with `Cc1ncc(-c2ccc(C(C)(C)O)nc2)c(OC[C@H]2C[C@@H]2c2ccc(F)cn2)n1`, 0.57 nM.

These data come from ChEMBL document CHEMBL5726258, “Pyrimidine PDE10 inhibitors” (2017).
